Measured values: US12723063B2, “GIPR-agonist compounds” (Eli Lilly and Company, priority 2019, dated 2026)
*1 amine or outer side, *2 acyl side, *3 side chain or, on linkers, in order; H or OH if unused. Where a SMILES comes first, the peptide text is derived from it. Side-chain parts run from the residue outwards. [ ]: non-standard residue; d: D form. The star is where a group is joined. C20 diacid = O=C(O)CCCCCCCCCCCCCCCCCCC(=O)*; αMePhe(2-F) = C[C@](N)(Cc1ccccc1F)C(=O)O; γGlu = O=C(O)[C@H](CCC(=O)[*:2])N[*:1]; 4Pal = N[C@@H](Cc1ccncc1)C(=O)O; αMeL = CC(C)C[C@](C)(N)C(=O)O; Iva = CC[C@](C)(N)C(=O)O; AEEA = NCCOCCOCC(=O)O; Aib = CC(C)(N)C(=O)O

Target: T1, human GcgR (Homo sapiens, UniProt P47871)
T1 construct: expressed in transfected cells; crude membranes
T1 sequence (P47871 26-477): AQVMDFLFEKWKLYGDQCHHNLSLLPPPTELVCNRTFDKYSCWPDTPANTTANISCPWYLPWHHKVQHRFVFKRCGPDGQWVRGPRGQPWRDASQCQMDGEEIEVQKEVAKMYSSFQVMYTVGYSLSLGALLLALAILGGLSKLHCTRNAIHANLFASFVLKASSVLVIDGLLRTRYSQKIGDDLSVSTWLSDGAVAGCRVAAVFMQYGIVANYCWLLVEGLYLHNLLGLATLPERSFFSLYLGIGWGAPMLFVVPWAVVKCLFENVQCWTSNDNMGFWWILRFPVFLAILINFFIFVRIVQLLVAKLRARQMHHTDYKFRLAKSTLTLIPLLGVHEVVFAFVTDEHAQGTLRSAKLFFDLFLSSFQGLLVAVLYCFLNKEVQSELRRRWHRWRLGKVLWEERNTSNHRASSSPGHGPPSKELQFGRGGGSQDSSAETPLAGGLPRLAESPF
Assay: [125I]-Glucagon binding, SPA with WGA beads, 0.1% bacitracin
Conditions: geometric mean, read-out: hGcgR Ki
How it was run: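 SPA competition binding with WGA beads on crude membranes from HEK293 cells stably expressing hGcgR. Buffer: 25 mM HEPES pH 7.4, 2.5 mM CaCl2, 1 mM MgCl2, 0.1% bacitracin, 0.003% Tween-20; 10-point 3-fold dilutions, NSB with 1 μM Gcg.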

CC[C@H](C)[C@H](NC(=O)[C@H](Cc1ccccc1)NC(=O)[C@@H](NC(=O)CNC(=O)[C@H](CCC(=O)O)NC(=O)C(C)(C)NC(=O)[C@@H](N)Cc1ccc(O)cc1)[C@@H](C)O)C(=O)N[C@@H](CO)C(=O)N[C@@H](CC(=O)O)C(=O)N[C@@H](Cc1ccc(O)cc1)C(=O)N[C@@H](CO)C(=O)N[C@H](C(=O)N[C@@](C)(CC(C)C)C(=O)N[C@@H](CC(C)C)C(=O)N[C@@H](CC(=O)O)C(=O)N[C@@H](CCCCN)C(=O)N[C@@H](CCCCNC(=O)COCCOCCNC(=O)COCCOCCNC(=O)CC[C@H](NC(=O)CCCCCCCCCCCCCCCCCCC(=O)O)C(=O)O)C(=O)N[C@@H](Cc1c[nH]cn1)C(=O)N[C@@H](CCC(N)=O)C(=O)NC(C)(C)C(=O)N[C@@H](CC(=O)O)C(=O)N[C@@H](Cc1ccccc1)C(=O)N[C@H](C(=O)N[C@@H](CCC(=O)O)C(=O)N[C@@H](Cc1c[nH]c2ccccc12)C(=O)N[C@@H](CC(C)C)C(=O)N[C@@H](CC(C)C)C(=O)N[C@@H](C)C(=O)NCC(=O)NCC(=O)N1CCC[C@H]1C(=O)N[C@@H](CO)C(=O)N[C@@H](CO)C(=O)NCC(=O)N[C@@H](C)C(=O)N1CCC[C@H]1C(=O)N1CCC[C@H]1C(=O)N1CCC[C@H]1C(=O)N[C@@H](CO)C(N)=O)C(C)C)[C@@H](C)CC [Example 54] (H-Y[Aib]EGTFISDYSI[αMeL]LDKK([AEEA-AEEA-γGlu-C20 diacid])HQ[Aib]DFVEWLLAGGPSSGAPPPS-NH2)
Ki: 386 nM

CC[C@H](C)[C@H](NC(=O)[C@H](Cc1ccccc1)NC(=O)[C@@H](NC(=O)CNC(=O)[C@H](CCC(=O)O)NC(=O)C(C)(C)NC(=O)[C@@H](N)Cc1ccc(O)cc1)[C@@H](C)O)C(=O)N[C@@H](CO)C(=O)N[C@@H](CC(=O)O)C(=O)N[C@@H](Cc1ccc(O)cc1)C(=O)N[C@@H](CO)C(=O)N[C@H](C(=O)N[C@@](C)(CC(C)C)C(=O)N[C@@H](CC(C)C)C(=O)N[C@@H](CC(=O)O)C(=O)N[C@@H](CCCCN)C(=O)N[C@@H](CCCCNC(=O)COCCOCCNC(=O)COCCOCCNC(=O)CC[C@H](NC(=O)CCCCCCCCCCCCCCCCCCC(=O)O)C(=O)O)C(=O)N[C@@H](Cc1c[nH]cn1)C(=O)N[C@@H](CCC(N)=O)C(=O)NC(C)(C)C(=O)N[C@@H](CCC(=O)O)C(=O)N[C@@H](Cc1ccccc1)C(=O)N[C@H](C(=O)N[C@@H](CCC(=O)O)C(=O)N[C@@H](Cc1ccncc1)C(=O)N[C@@H](CC(C)C)C(=O)N[C@@H](CC(C)C)C(=O)N[C@@H](C)C(=O)NCC(=O)NCC(=O)N1CCC[C@H]1C(=O)N[C@@H](CO)C(=O)N[C@@H](CO)C(=O)NCC(=O)N[C@@H](C)C(=O)N1CCC[C@H]1C(=O)N1CCC[C@H]1C(=O)N1CCC[C@H]1C(=O)N[C@@H](CO)C(N)=O)C(C)C)[C@@H](C)CC [Example 52]
Ki: 114 nM

CC[C@H](C)[C@H](NC(=O)[C@H](CO)NC(=O)[C@H](Cc1ccc(O)cc1)NC(=O)[C@H](CC(=O)O)NC(=O)[C@H](CO)NC(=O)[C@@H](NC(=O)[C@](C)(Cc1ccccc1F)NC(=O)[C@@H](NC(=O)CNC(=O)[C@H](CCC(=O)O)NC(=O)C(C)(C)NC(=O)[C@@H](N)Cc1ccc(O)cc1)[C@@H](C)O)[C@@H](C)CC)C(=O)N[C@@H](C)C(=O)N[C@@H](CC(C)C)C(=O)N[C@@H](CC(=O)O)C(=O)N[C@@H](CCCCN)C(=O)N[C@@H](CCCCNC(=O)COCCOCCNC(=O)COCCOCCNC(=O)CC[C@H](NC(=O)CCCCCCCCCCCCCCCCCCC(=O)O)C(=O)O)C(=O)N[C@@H](Cc1c[nH]cn1)C(=O)N[C@@H](CCC(N)=O)C(=O)NC(C)(C)C(=O)N[C@@H](CC(=O)O)C(=O)N[C@@H](Cc1ccccc1)C(=O)N[C@H](C(=O)N[C@@H](CCC(=O)O)C(=O)N[C@@H](Cc1c[nH]c2ccccc12)C(=O)N[C@@H](CC(C)C)C(=O)N[C@@H](CC(C)C)C(=O)N[C@@H](CCC(=O)O)C(=O)N[C@H](C(=O)NCC(=O)N1CCC[C@H]1C(=O)N[C@@H](CO)C(=O)N[C@@H](CO)C(=O)NCC(=O)N[C@@H](C)C(=O)N1CCC[C@H]1C(=O)N1CCC[C@H]1C(=O)N1CCC[C@H]1C(=O)N[C@@H](CO)C(N)=O)[C@@H](C)O)C(C)C [Example 40] (H-Y[Aib]EGT[αMePhe(2-F)]ISDYSIALDKK([AEEA-AEEA-γGlu-C20 diacid])HQ[Aib]DFVEWLLETGPSSGAPPPS-NH2)
Ki: 50.9 nM

CC[C@H](C)[C@H](NC(=O)[C@H](CO)NC(=O)[C@H](Cc1ccc(O)cc1)NC(=O)[C@H](CC(=O)O)NC(=O)[C@H](CO)NC(=O)[C@@H](NC(=O)[C@](C)(Cc1ccccc1F)NC(=O)[C@@H](NC(=O)CNC(=O)[C@H](CCC(=O)O)NC(=O)C(C)(C)NC(=O)[C@@H](N)Cc1ccc(O)cc1)[C@@H](C)O)[C@@H](C)CC)C(=O)N[C@@H](C)C(=O)N[C@@H](CC(C)C)C(=O)N[C@@H](CC(=O)O)C(=O)N[C@@H](CCCCN)C(=O)N[C@@H](CCCCNC(=O)COCCOCCNC(=O)COCCOCCNC(=O)CC[C@H](NC(=O)CCCCCCCCCCCCCCCCCCC(=O)O)C(=O)O)C(=O)N[C@@H](Cc1c[nH]cn1)C(=O)N[C@@H](CCC(N)=O)C(=O)NC(C)(C)C(=O)N[C@@H](CCC(=O)O)C(=O)N[C@@H](Cc1ccccc1)C(=O)N[C@H](C(=O)N[C@@H](CC(N)=O)C(=O)N[C@@H](Cc1ccc(O)cc1)C(=O)N[C@@H](CC(C)C)C(=O)N[C@@H](CC(C)C)C(=O)N[C@@H](C)C(=O)N[C@H](C(=O)NCC(=O)N1CCC[C@H]1C(=O)N[C@@H](CO)C(=O)N[C@@H](CO)C(=O)NCC(=O)N[C@@H](C)C(=O)N1CCC[C@H]1C(=O)N1CCC[C@H]1C(=O)N1CCC[C@H]1C(=O)N[C@@H](CO)C(N)=O)[C@@H](C)O)C(C)C [Example 34] (H-Y[Aib]EGT[αMePhe(2-F)]ISDYSIALDKK([AEEA-AEEA-γGlu-C20 diacid])HQ[Aib]EFVNYLLATGPSSGAPPPS-NH2)
Ki: 143 nM

CC[C@H](C)[C@H](NC(=O)[C@H](CO)NC(=O)[C@H](Cc1ccc(O)cc1)NC(=O)[C@H](CC(=O)O)NC(=O)[C@H](CO)NC(=O)[C@@H](NC(=O)[C@](C)(CC)NC(=O)[C@@H](NC(=O)CNC(=O)[C@H](CCC(=O)O)NC(=O)C(C)(C)NC(=O)[C@@H](N)Cc1ccc(O)cc1)[C@@H](C)O)[C@@H](C)CC)C(=O)N[C@@](C)(CC(C)C)C(=O)N[C@@H](CC(C)C)C(=O)N[C@@H](CC(=O)O)C(=O)N[C@@H](CCCCN)C(=O)N[C@@H](CCCCNC(=O)COCCOCCNC(=O)COCCOCCNC(=O)CC[C@H](NC(=O)CCCCCCCCCCCCCCCCCCC(=O)O)C(=O)O)C(=O)N[C@@H](Cc1c[nH]cn1)C(=O)N[C@@H](CCC(N)=O)C(=O)NC(C)(C)C(=O)N[C@@H](CC(=O)O)C(=O)N[C@@H](Cc1ccccc1)C(=O)N[C@H](C(=O)N[C@@H](CCC(=O)O)C(=O)N[C@@H](Cc1ccncc1)C(=O)N[C@@H](CC(C)C)C(=O)N[C@@H](CC(C)C)C(=O)N[C@@H](C)C(=O)NCC(=O)NCC(=O)N1CCC[C@H]1C(=O)N[C@@H](CO)C(=O)N[C@@H](CO)C(=O)NCC(=O)N[C@@H](C)C(=O)N1CCC[C@H]1C(=O)N1CCC[C@H]1C(=O)N1CCC[C@H]1C(=O)N[C@@H](CO)C(N)=O)C(C)C [Example 55] (H-Y[Aib]EGT[Iva]ISDYSI[αMeL]LDKK([AEEA-AEEA-γGlu-C20 diacid])HQ[Aib]DFVE[4Pal]LLAGGPSSGAPPPS-NH2)
Ki: > 960 nM

CC[C@H](C)[C@H](NC(=O)[C@H](Cc1ccccc1)NC(=O)[C@@H](NC(=O)CNC(=O)[C@H](CCC(=O)O)NC(=O)C(C)(C)NC(=O)[C@@H](N)Cc1ccc(O)cc1)[C@@H](C)O)C(=O)N[C@@H](CO)C(=O)N[C@@H](CC(=O)O)C(=O)N[C@@H](Cc1ccc(O)cc1)C(=O)N[C@@H](CO)C(=O)N[C@H](C(=O)N[C@@](C)(CC(C)C)C(=O)N[C@@H](CC(C)C)C(=O)N[C@@H](CC(=O)O)C(=O)N[C@@H](CCCCN)C(=O)N[C@@H](CCCCNC(=O)COCCOCCNC(=O)COCCOCCNC(=O)CC[C@H](NC(=O)CCCCCCCCCCCCCCCCC(=O)O)C(=O)O)C(=O)N[C@@H](Cc1c[nH]cn1)C(=O)N[C@@H](CCC(N)=O)C(=O)NC(C)(C)C(=O)N[C@@H](CC(=O)O)C(=O)N[C@@H](Cc1ccccc1)C(=O)N[C@H](C(=O)N[C@@H](CCC(=O)O)C(=O)N[C@@H](Cc1ccncc1)C(=O)N[C@@H](CC(C)C)C(=O)N[C@@H](CC(C)C)C(=O)N[C@@H](C)C(=O)NCC(=O)NCC(=O)N1CCC[C@H]1C(=O)N[C@@H](CO)C(=O)N[C@@H](CO)C(=O)NCC(=O)N[C@@H](C)C(=O)N1CCC[C@H]1C(=O)N1CCC[C@H]1C(=O)N1CCC[C@H]1C(=O)N[C@@H](CO)C(N)=O)C(C)C)[C@@H](C)CC [Example 49]
Ki: > 960 nM

CC[C@H](C)[C@H](NC(=O)[C@H](CO)NC(=O)[C@H](Cc1ccc(O)cc1)NC(=O)[C@H](CC(=O)O)NC(=O)[C@H](CO)NC(=O)[C@@H](NC(=O)[C@](C)(Cc1ccccc1F)NC(=O)[C@@H](NC(=O)CNC(=O)[C@H](CCC(=O)O)NC(=O)C(C)(C)NC(=O)[C@@H](N)Cc1ccc(O)cc1)[C@@H](C)O)[C@@H](C)CC)C(=O)N[C@@H](C)C(=O)N[C@@H](CC(C)C)C(=O)N[C@@H](CC(=O)O)C(=O)N[C@@H](CCCCN)C(=O)N[C@@H](CCCCNC(=O)COCCOCCNC(=O)COCCOCCNC(=O)CC[C@H](NC(=O)CCCCCCCCCCCCCCCCCCC(=O)O)C(=O)O)C(=O)N[C@@H](Cc1c[nH]cn1)C(=O)N[C@@H](CCC(N)=O)C(=O)NC(C)(C)C(=O)N[C@@H](CC(=O)O)C(=O)N[C@@H](Cc1ccccc1)C(=O)N[C@H](C(=O)N[C@@H](CCC(=O)O)C(=O)N[C@@H](Cc1ccc(O)cc1)C(=O)N[C@@H](CC(C)C)C(=O)N[C@@H](CC(C)C)C(=O)N[C@@H](CCC(=O)O)C(=O)NCC(=O)NCC(=O)N1CCC[C@H]1C(=O)N[C@@H](CO)C(=O)N[C@@H](CO)C(=O)NCC(=O)N[C@@H](C)C(=O)N1CCC[C@H]1C(=O)N1CCC[C@H]1C(=O)N1CCC[C@H]1C(=O)N[C@@H](CO)C(N)=O)C(C)C [Example 37] (H-Y[Aib]EGT[αMePhe(2-F)]ISDYSIALDKK([AEEA-AEEA-γGlu-C20 diacid])HQ[Aib]DFVEYLLEGGPSSGAPPPS-NH2)
Ki: 51.4 nM
